Results published in US8202879B2, “Quinazoline derivatives having tyrosine kinase inhibitory activity” (Shionogi & Co., Ltd., priority 2005, dated 2012).
Read-outs that look alike come from different tables or passages of the source.

Experiments:
[1] = system: NCI-N87 cells (human stomach cancer cell strain); experiment: in vivo anti-tumor assessment, NCI-N87 cells transplanted into mammary fat pad of nude mouse
Experimental: NCI-N87 cells (human stomach cancer cell strain) were transplanted into a mammary fat pad of a female nude mouse (BALB/cA Jcl-nu/nu, CLEA Japan, Inc) at 5×10^6 cells/mouse (day 0). On day 5, a long diameter and a short diameter of a tumor were measured with a caliper, and mice were divided into groups (N=6) so that a tumor size between groups became equal. A test compound (20, 80 mg/kg) suspended in a 0.5% methylcellulose (MC) solution was orally administered from day 5 on for 15 consecutive days, and the anti-tumor effect was expressed by a ratio (T/C %) of an average value of a tumor size between a compound-administered group (T) and a control (C, 0.5% MC) group on day 20.
Results of in vivo anti-tumor assessment of a compound VIII-11 are shown in Table 54, and results of in vivo anti-tumor assessment of a compound VIII-66 are shown in Table 55.

[2] = biological target: T1, HER2 (Homo sapiens, UniProt P04626); experiment: Enzyme inhibitory activity on HER2 (time resolution fluorescence, biotinylated poly-Glu-Tyr substrate); assay type: biochemical
T1 construct: purchased Carna Biosciences, Inc; host or cells: insect cell expression system
Procedure, shortened: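 Insect-cell-expressed HER2 (1000 ng/ml working stock) with biotinylated poly-Glu-Tyr (4:1; 3.125 μg/ml stock) and ATP (290 μM solution) in TBS with MgCl2, MnCl2, Na3VO4 and BSA, 60 min at room temperature. 10-point 4-fold dilutions from a 1 mM top solution. Phosphotyrosine detected by TR-FRET with Eu-antibody and streptavidin-XL.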

[3] = biological target: T2, EGFR (Homo sapiens, UniProt P00533); experiment: Enzyme inhibitory activity on EGFR (time resolution fluorescence, biotinylated poly-Glu-Tyr substrate); assay type: biochemical
T2 construct: purchased Carna Biosciences, Inc; host or cells: insect cell expression system
Procedure, shortened: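 Insect-cell-expressed EGFR phosphorylated biotinylated poly-Glu-Tyr (4:1) for 60 min at room temperature in TBS with MgCl2, MnCl2, Na3VO4 and BSA. Enzyme 250 ng/ml, substrate 3.125 μg/ml and ATP 125 μM as working solutions. EDTA stop; Eu anti-phosphotyrosine/streptavidin-XL time-resolved fluorescence read; 10-point 4-fold dilutions.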

[4] = system: BT-474; experiment: In vitro cell proliferation inhibition, WST assay; assay type: cell-based, human; conditions: BT-474 cells, cultured for 3 days, read-out: BT-474 (nM) proliferation inhibitory activity (IC50 value)
Experimental: Test of In Vitro Cell Proliferation Inhibition of Test Compound
As a human-derived cancer cell strain, BT-474 was used. Cells were all cultured in a 37° C., 5% CO2 incubator in a medium in which 10% bovine fetal serum (ICN) and 50 units ml penicillin/60 μg/ml streptomycin solution (GIBCO) were added to Dulbecco's Modified Essential Medium (DMEM, Nacalai Tesque, Inc).

[5] = day 5 (start of administration, grouping), 20 mg/kg administrated group, oral, N=6
[6] = day 5 (start of administration, grouping), 80 mg/kg administrated group, oral, N=6
[7] = day 20, 20 mg/kg orally for 15 consecutive days from day 5
[8] = day 20, 80 mg/kg orally for 15 consecutive days from day 5
[9] = HER2 purified from insect cell expression system, ATP solution 290 μM, room temperature, 60 minutes
[10] = EGFR purified from insect cell expression system, ATP solution 125 μM, room temperature, 60 minutes
[11] = enzyme reaction at room temperature for 60 minutes

T2 sequence (P00533 25-1210): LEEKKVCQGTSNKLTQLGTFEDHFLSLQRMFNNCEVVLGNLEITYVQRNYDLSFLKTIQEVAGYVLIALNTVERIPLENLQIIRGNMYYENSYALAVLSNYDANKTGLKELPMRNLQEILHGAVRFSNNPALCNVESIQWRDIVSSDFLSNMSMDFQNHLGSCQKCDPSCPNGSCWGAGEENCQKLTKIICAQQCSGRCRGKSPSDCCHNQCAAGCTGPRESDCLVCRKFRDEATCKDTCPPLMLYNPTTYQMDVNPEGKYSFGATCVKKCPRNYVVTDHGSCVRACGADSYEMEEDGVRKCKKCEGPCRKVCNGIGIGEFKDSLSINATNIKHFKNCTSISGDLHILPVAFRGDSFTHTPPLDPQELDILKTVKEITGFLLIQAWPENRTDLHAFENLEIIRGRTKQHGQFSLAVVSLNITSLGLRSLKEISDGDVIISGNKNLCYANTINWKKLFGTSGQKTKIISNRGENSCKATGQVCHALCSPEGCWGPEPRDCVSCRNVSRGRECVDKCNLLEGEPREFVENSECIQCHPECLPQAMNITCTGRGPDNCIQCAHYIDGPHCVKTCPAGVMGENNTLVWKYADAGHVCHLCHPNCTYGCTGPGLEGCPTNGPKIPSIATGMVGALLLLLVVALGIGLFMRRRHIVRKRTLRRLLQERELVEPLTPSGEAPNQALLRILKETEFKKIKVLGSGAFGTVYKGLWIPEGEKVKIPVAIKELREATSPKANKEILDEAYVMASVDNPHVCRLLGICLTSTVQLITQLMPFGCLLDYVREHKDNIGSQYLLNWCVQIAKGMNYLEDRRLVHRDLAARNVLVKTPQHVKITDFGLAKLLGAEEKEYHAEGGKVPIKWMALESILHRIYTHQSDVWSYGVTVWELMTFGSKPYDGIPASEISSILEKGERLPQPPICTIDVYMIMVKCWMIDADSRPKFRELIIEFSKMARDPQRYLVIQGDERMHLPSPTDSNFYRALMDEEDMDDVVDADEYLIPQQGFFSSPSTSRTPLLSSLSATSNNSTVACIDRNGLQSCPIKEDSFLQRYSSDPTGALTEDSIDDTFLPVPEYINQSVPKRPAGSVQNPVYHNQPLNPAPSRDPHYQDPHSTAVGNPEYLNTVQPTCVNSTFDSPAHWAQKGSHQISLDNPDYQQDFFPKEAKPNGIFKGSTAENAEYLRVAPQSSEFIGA
T1 sequence (P04626 23-1255): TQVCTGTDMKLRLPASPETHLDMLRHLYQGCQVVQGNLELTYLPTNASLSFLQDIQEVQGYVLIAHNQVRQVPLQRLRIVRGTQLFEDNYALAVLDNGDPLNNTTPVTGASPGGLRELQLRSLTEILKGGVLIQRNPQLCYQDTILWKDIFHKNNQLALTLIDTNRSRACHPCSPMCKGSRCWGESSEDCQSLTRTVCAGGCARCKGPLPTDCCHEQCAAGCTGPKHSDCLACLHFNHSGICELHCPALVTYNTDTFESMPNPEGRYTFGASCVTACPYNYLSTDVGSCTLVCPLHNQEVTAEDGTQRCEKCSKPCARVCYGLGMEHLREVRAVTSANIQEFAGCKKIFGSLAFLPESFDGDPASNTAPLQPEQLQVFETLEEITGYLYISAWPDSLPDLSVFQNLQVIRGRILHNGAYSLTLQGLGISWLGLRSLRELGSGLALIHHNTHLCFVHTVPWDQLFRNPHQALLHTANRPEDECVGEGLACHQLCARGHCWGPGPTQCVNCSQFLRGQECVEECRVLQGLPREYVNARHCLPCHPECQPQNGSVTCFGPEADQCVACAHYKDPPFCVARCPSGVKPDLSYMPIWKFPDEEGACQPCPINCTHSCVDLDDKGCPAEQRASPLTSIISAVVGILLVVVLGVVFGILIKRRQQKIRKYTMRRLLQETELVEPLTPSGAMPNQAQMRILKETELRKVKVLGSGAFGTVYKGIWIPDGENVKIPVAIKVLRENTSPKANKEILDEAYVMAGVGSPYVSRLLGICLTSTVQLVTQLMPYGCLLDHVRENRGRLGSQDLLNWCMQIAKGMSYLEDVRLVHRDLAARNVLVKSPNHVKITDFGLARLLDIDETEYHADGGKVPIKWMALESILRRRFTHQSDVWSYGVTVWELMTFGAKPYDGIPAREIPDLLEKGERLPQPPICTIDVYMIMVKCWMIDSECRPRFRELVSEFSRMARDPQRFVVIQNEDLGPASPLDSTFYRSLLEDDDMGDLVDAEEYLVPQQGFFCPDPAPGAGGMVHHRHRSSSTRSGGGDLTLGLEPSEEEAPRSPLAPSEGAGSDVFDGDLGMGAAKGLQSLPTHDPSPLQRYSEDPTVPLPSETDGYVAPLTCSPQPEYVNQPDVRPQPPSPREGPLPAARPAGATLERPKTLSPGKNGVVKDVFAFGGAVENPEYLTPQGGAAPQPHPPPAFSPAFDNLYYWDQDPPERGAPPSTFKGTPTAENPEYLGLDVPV

IC50 ([4]; Homo sapiens, BT-474, 72 h) [nM]	IC50 [2, 11] [nM]	IC50 [3, 11] [nM]	SMILES	also measured
26			CC#C/C(=N\OCCN1CCCC1)c1ccc2ncnc(Nc3ccc(OCc4cccc(F)c4)c(Cl)c3)c2c1 [VIII-11]	Mean of tumor size [1, 5]: 197 mm^3; Mean of tumor size [1, 6]: 197 mm^3; Mean of tumor size [1, 7]: 356 mm^3; T/C % (ratio of average tumor size, compound-administered group vs control group) [1, 7]: 54%; Mean of tumor size [1, 8]: 193 mm^3; T/C % (ratio of average tumor size, compound-administered group vs control group) [1, 8]: 29%; IC50 [2, 9]: 45 nM; IC50 [3, 10]: 43 nM
			CC#C/C(=N\OCCN(C)CCO)c1ccc2ncnc(Nc3ccc(OCc4cccc(F)c4)c(Cl)c3)c2c1.Cl.Cl [VIII-66]	Mean of tumor size [1, 5]: 134 mm^3; Mean of tumor size [1, 6]: 150 mm^3; Mean of tumor size [1, 7]: 154 mm^3; T/C % (ratio of average tumor size, compound-administered group vs control group) [1, 7]: 32%; Mean of tumor size [1, 8]: 17 mm^3; T/C % (ratio of average tumor size, compound-administered group vs control group) [1, 8]: 4%; IC50 [2, 9]: 43 nM; IC50 [3, 10]: 27 nM; IC50 [4]: 8 nM
24	14.2	6.2	CC#C/C(=N\OCCN(CC)CCOC)c1ccc2ncnc(Nc3ccc4c(cnn4Cc4cccc(F)c4)c3)c2c1 [VIII-192]	
25	15	14	CC#C/C(=N\OCCN1CC[C@@H](OC(N)=O)C1)c1ccc2ncnc(Nc3ccc4c(cnn4Cc4cccc(F)c4)c3)c2c1 [VIII-193]	
	13	8.6	CC#C/C(=N\OC[C@@H]1C[C@H](O)CN1)c1ccc2ncnc(Nc3ccc4c(cnn4Cc4cccc(F)c4)c3)c2c1 [VIII-194]	IC50 [4]: 25 nM
29	43	45	CC#C/C(=N\OCCN1CCOCC1)c1ccc2ncnc(Nc3ccc4c(cnn4Cc4cccc(F)c4)c3)c2c1 [VIII-195]	
28	20	11	CC#C/C(=N\OCCN1CCNC(=O)C1)c1ccc2ncnc(Nc3ccc4c(cnn4Cc4cccc(F)c4)c3)c2c1 [VIII-196]	
14	21	9	CC#C/C(=N\OC[C@@H]1COCCN1)c1ccc2ncnc(Nc3ccc4c(cnn4Cc4cccc(F)c4)c3)c2c1 [VIII-197]	
10	4.6	3.6	CC#CC(=NOCC1CNCCN1)c1ccc2ncnc(Nc3ccc4c(cnn4Cc4cccc(F)c4)c3)c2c1 (stereo not drawn) [VIII-198]	
33	5.2	6.3	CNCCO/N=C(\C#CCOC)c1ccc2ncnc(Nc3ccc4c(cnn4Cc4cccc(F)c4)c3)c2c1 [VIII-199]	
31	13	17	CC#C/C(=N\OC[C@@H](COC)NC)c1ccc2ncnc(Nc3ccc(S(=O)(=O)c4ccccc4)cc3)c2c1 [VIII-205]	
68	17	21	CC#C/C(=N\OC[C@@H]1COCCN1)c1ccc2ncnc(Nc3ccc(S(=O)(=O)c4ccccc4)cc3)c2c1 [VIII-207]	
27	23	28	CNCCO/N=C(\C#CCOC)c1ccc2ncnc(Nc3ccc(S(=O)(=O)c4ccccc4)cc3)c2c1 [VIII-208]	
19	30	38	COCC#C/C(=N\OC[C@@H]1COCCN1)c1ccc2ncnc(Nc3ccc(S(=O)(=O)c4ccccc4)cc3)c2c1 [VIII-209]	
31	14	42	CC#C/C(=N\OCCNC)c1ccc2ncnc(Nc3ccc(Oc4ccc(C)nc4)c(C)c3)c2c1 [VIII-210]	
16	18	23	CC#C/C(=N\OCCNC)c1ccc2ncnc(Nc3ccc(COc4cccc(F)c4)c(Cl)c3)c2c1 [VIII-211]	
33	25	18	CC#C/C(=N\OCCNC)c1ccc2ncnc(Nc3ccc(Sc4ccccc4)cc3)c2c1 [VIII-213]	
25	3.3	4.5	CC#C/C(=N\OCCNC)c1ccc2ncnc(Nc3ccc(S(=O)(=O)c4ccccc4)cc3)c2c1 [VIII-214]	
32	7	22	CC#C/C(=N\OCCNC)c1ccc2ncnc(Nc3ccc(OCc4cccnc4)c(Cl)c3)c2c1 [VIII-216]	
41	22	76	CC#C/C(=N\OCC1COCCN1)c1ccc2ncnc(Nc3ccc(Oc4ccc(C)nc4)c(C)c3)c2c1 (stereo not drawn) [VIII-218]	
45	20	26	CC#C/C(=N\OCC1COCCN1)c1ccc2ncnc(Nc3ccc(S(=O)(=O)c4ccccc4)cc3)c2c1 (stereo not drawn) [VIII-219]	
23	449	263	CC#C/C(=N\OCC1COCCN1)c1ccc2ncnc(Nc3ccc(COc4cccc(F)c4)c(Cl)c3)c2c1 (stereo not drawn) [VIII-220]	
	168	143	CC#C/C(=N\OCC1COCCN1)c1ccc2ncnc(Nc3ccc(COc4cccc(F)c4)c(Cl)c3)c2c1 (stereo not drawn) [VIII-221]	IC50 [4]: 15 nM
6	217	253	CC#C/C(=N\OCC(N)=O)c1ccc2ncnc(Nc3ccc(OCc4cccc(F)c4)c(Cl)c3)c2c1 [VIII-223]	
1.2	118	122	CC#C/C(=N\OCC(=O)NCCO)c1ccc2ncnc(Nc3ccc(OCc4cccc(F)c4)c(Cl)c3)c2c1 [VIII-224]	
7	70	47	CC#C/C(=N\OCC(=O)NCCOS(C)(=O)=O)c1ccc2ncnc(Nc3ccc(OCc4cccc(F)c4)c(Cl)c3)c2c1 [VIII-225]	
5	10	20	CC#C/C(=N\OCC(=O)NCCN(C)C)c1ccc2ncnc(Nc3ccc(OCc4cccc(F)c4)c(Cl)c3)c2c1 [VIII-226]	
